# From patent US8846653B2, “Delta-tocotrienol treatment and prevention of pancreatic cancer” (University of South Florida, priority 2006, dated 2014)
# Columns and labels:
# Format in all cases: cell-based, human
# [1] = tested on: SW1990 pancreatic cancer cells; experiment: MTS assay of SW1990 cultures, single 50 μM dose; details: SW1990, 50 μM
# Summary of the method: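 SW1990 cells were grown in DMEM with 10% FBS at 37 °C, 5% CO2. They were given one 50 μM dose of a tocotrienol, tocopherol, tocopherol succinate, geranylgeraniol or succinic acid, in an olive-oil-extract vehicle. MTS viability was read at 24, 48 or 72 h and compared with vehicle-only cultures.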
# [2] = tested on: BXPC3 cells; experiment: MTT assay of BXPC3 cultures, single 50 μM dose; parameters: MTT assay result, run 1 / MTT assay result, run 2 / MTT assay result, run 3 / MTT assay result, run 4 / MTT assay result, run 5 / MTT assay result, run 6 / MTT assay result, run 7 / MTT assay result, av (average) / MTT assay result, av-blank / MTT assay result, av: unit not given here; details: BXPC3, 50 μM; for MTT assay result, av-blank: average minus blank; for MTT assay result, av (average) / MTT assay result, av: average of 7 runs
# Summary of the method: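 BXPC3 cells in 10% FBS medium at 37° C, 5% CO2, given a single 50 μM dose of tocotrienols, tocopherols, tocopherol succinate, geranylgeraniol, succinic acid or vehicle, alongside untreated control. Viability read by MTT at 48 or 120 hours.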
# [3] = tested on: MiaPaCa-2 cells; experiment: MTT assay of MiaPaCa2 cultures, single 50 μM dose; parameters: rel amt (relative value set to the control): unit not given here; details: MiaPaCa2, 50 μM; for MTT assay result, av-blank: average minus blank; for MTT assay result, av: average of 7 runs
# Summary of the method: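 MiaPaCa-2 cells given a single 50 μM dose of test agent (tocotrienols, tocopherols, tocopherol succinate, geranylgeraniol or succinic acid) or vehicle (ethanol-extracted olive oil). Viability read by MTT at 48 or 120 hours after treatment, alongside vehicle-only control culture.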
smiles,measurement,setting,value
"Cc1c(C)c2c(c(C)c1O)CC[C@@](C)(CCC[C@H](C)CCC[C@H](C)CCCC(C)C)O2 [T alpha, alpha tocopherol]",rel amnt (relative value set to the control),[1]; 24 hours,122
same,"MTS assay result, run 1",[1]; 24 hours,0.188
same,"MTS assay result, run 2",[1]; 24 hours,0.183
same,"MTS assay result, run 3",[1]; 24 hours,0.189
same,"MTS assay result, run 4",[1]; 24 hours,0.166
same,"MTS assay result, run 5",[1]; 24 hours,0.183
same,"MTS assay result, run 6",[1]; 24 hours,0.181
same,"MTS assay result, run 7",[1]; 24 hours,0.186
same,"MTS assay result, run 8",[1]; 24 hours,0.16
same,"MTS assay result, run 9",[1]; 24 hours,0.180
same,rel amnt (relative value set to the control),[1]; 48 hours,107
same,"MTS assay result, run 1",[1]; 48 hours,0.172
same,"MTS assay result, run 2",[1]; 48 hours,0.17
same,"MTS assay result, run 3",[1]; 48 hours,0.16
same,"MTS assay result, run 4",[1]; 48 hours,0.154
same,"MTS assay result, run 5",[1]; 48 hours,0.154
same,"MTS assay result, run 6",[1]; 48 hours,0.167
same,"MTS assay result, run 7",[1]; 48 hours,0.18
same,"MTS assay result, run 8",[1]; 48 hours,0.146
same,"MTS assay result, run 9",[1]; 48 hours,0.163
same,rel amnt (relative value set to the control),[1]; 72 hours,103
same,"MTS assay result, run 1",[1]; 72 hours,0.523
same,"MTS assay result, run 2",[1]; 72 hours,0.478
same,"MTS assay result, run 3",[1]; 72 hours,0.46
same,"MTS assay result, run 4",[1]; 72 hours,0.453
same,"MTS assay result, run 5",[1]; 72 hours,0.443
same,"MTS assay result, run 6",[1]; 72 hours,0.456
same,"MTS assay result, run 7",[1]; 72 hours,0.38
same,"MTS assay result, run 8",[1]; 72 hours,0.451
same,"MTS assay result, run 9",[1]; 72 hours,0.456
same,rel amt (relative value set to the control),[2]; 48 hours,120
same,"MTT assay result, av-blank",[2]; 48 hours,0.274
same,"MTT assay result, av (average)",[2]; 48 hours,0.323
same,"MTT assay result, run 1",[2]; 48 hours,0.333
same,"MTT assay result, run 2",[2]; 48 hours,0.328
same,"MTT assay result, run 3",[2]; 48 hours,0.352
same,"MTT assay result, run 4",[2]; 48 hours,0.296
same,"MTT assay result, run 5",[2]; 48 hours,0.3
same,"MTT assay result, run 6",[2]; 48 hours,0.341
same,"MTT assay result, run 7",[2]; 48 hours,0.312
same,rel amt (relative value set to the control),[2]; 120 hours (5 days),106
same,"MTT assay result, av-blank",[2]; 120 hours (5 days),0.611
same,"MTT assay result, av",[2]; 120 hours (5 days),0.666
same,"MTT assay result, run 1",[2]; 120 hours (5 days),0.657
same,"MTT assay result, run 2",[2]; 120 hours (5 days),0.642
same,"MTT assay result, run 3",[2]; 120 hours (5 days),0.666
same,"MTT assay result, run 4",[2]; 120 hours (5 days),0.659
same,"MTT assay result, run 5",[2]; 120 hours (5 days),0.705
same,"MTT assay result, run 6",[2]; 120 hours (5 days),0.66
same,"MTT assay result, run 7",[2]; 120 hours (5 days),0.672
same,rel amt (relative value set to the control),[3]; 48 hours,95
same,"MTT assay result, av-blank",[3]; 48 hours,0.296
same,"MTT assay result, av",[3]; 48 hours,0.342
same,"MTT assay result, run 1",[3]; 48 hours,0.365
same,"MTT assay result, run 2",[3]; 48 hours,0.352
same,"MTT assay result, run 3",[3]; 48 hours,0.339
same,"MTT assay result, run 4",[3]; 48 hours,0.338
same,"MTT assay result, run 5",[3]; 48 hours,0.35
same,"MTT assay result, run 6",[3]; 48 hours,0.297
same,"MTT assay result, run 7",[3]; 48 hours,0.35
same,rel amt (relative value set to the control),[3]; 120 hours (5 days),89
same,"MTT assay result, av-blank",[3]; 120 hours (5 days),1.604
same,"MTT assay result, av",[3]; 120 hours (5 days),1.656
same,"MTT assay result, run 1",[3]; 120 hours (5 days),1.56
same,"MTT assay result, run 2",[3]; 120 hours (5 days),1.647
same,"MTT assay result, run 3",[3]; 120 hours (5 days),1.59
same,"MTT assay result, run 4",[3]; 120 hours (5 days),1.619
same,"MTT assay result, run 5",[3]; 120 hours (5 days),2.059
same,"MTT assay result, run 6",[3]; 120 hours (5 days),1.526
same,"MTT assay result, run 7",[3]; 120 hours (5 days),1.588
"CC(C)=CCC/C(C)=C/CC/C(C)=C/CC[C@]1(C)CCc2cc(O)c(C)c(C)c2O1 [T3 gamma, gamma tocotrienol]",rel amnt (relative value set to the control),[1]; 24 hours,107
same,"MTS assay result, run 1",[1]; 24 hours,0.169
same,"MTS assay result, run 2",[1]; 24 hours,0.161
same,"MTS assay result, run 3",[1]; 24 hours,0.163
same,"MTS assay result, run 4",[1]; 24 hours,0.143
same,"MTS assay result, run 5",[1]; 24 hours,0.15
same,"MTS assay result, run 6",[1]; 24 hours,0.158
same,"MTS assay result, run 7",[1]; 24 hours,0.159
same,"MTS assay result, run 8",[1]; 24 hours,0.151
same,"MTS assay result, run 9",[1]; 24 hours,0.157
same,rel amnt (relative value set to the control),[1]; 48 hours,89
same,"MTS assay result, run 1",[1]; 48 hours,0.114
same,"MTS assay result, run 2",[1]; 48 hours,0.125
same,"MTS assay result, run 3",[1]; 48 hours,0.13
same,"MTS assay result, run 4",[1]; 48 hours,0.123
same,"MTS assay result, run 5",[1]; 48 hours,0.137
same,"MTS assay result, run 6",[1]; 48 hours,0.137
same,"MTS assay result, run 7",[1]; 48 hours,0.16
same,"MTS assay result, run 8",[1]; 48 hours,0.16
same,"MTS assay result, run 9",[1]; 48 hours,0.135
same,rel amnt (relative value set to the control),[1]; 72 hours,177
same,"MTS assay result, run 1",[1]; 72 hours,0.776
same,"MTS assay result, run 2",[1]; 72 hours,0.744
same,"MTS assay result, run 3",[1]; 72 hours,0.88
same,"MTS assay result, run 4",[1]; 72 hours,0.734
same,"MTS assay result, run 5",[1]; 72 hours,0.812
same,"MTS assay result, run 6",[1]; 72 hours,0.817
same,"MTS assay result, run 7",[1]; 72 hours,0.77
same,"MTS assay result, run 8",[1]; 72 hours,0.759
same,"MTS assay result, run 9",[1]; 72 hours,0.786
same,rel amt (relative value set to the control),[2]; 48 hours,99
same,"MTT assay result, av-blank",[2]; 48 hours,0.226
same,"MTT assay result, av (average)",[2]; 48 hours,0.275
same,"MTT assay result, run 1",[2]; 48 hours,0.259
same,"MTT assay result, run 2",[2]; 48 hours,0.257
same,"MTT assay result, run 3",[2]; 48 hours,0.289
same,"MTT assay result, run 4",[2]; 48 hours,0.279
same,"MTT assay result, run 5",[2]; 48 hours,0.268
same,"MTT assay result, run 6",[2]; 48 hours,0.292
same,"MTT assay result, run 7",[2]; 48 hours,0.283
same,rel amt (relative value set to the control),[2]; 120 hours (5 days),66
same,"MTT assay result, av-blank",[2]; 120 hours (5 days),0.377
same,"MTT assay result, av",[2]; 120 hours (5 days),0.432
same,"MTT assay result, run 1",[2]; 120 hours (5 days),0.418
same,"MTT assay result, run 2",[2]; 120 hours (5 days),0.446
same,"MTT assay result, run 3",[2]; 120 hours (5 days),0.446
same,"MTT assay result, run 4",[2]; 120 hours (5 days),0.457
same,"MTT assay result, run 5",[2]; 120 hours (5 days),0.428
same,"MTT assay result, run 6",[2]; 120 hours (5 days),0.412
same,"MTT assay result, run 7",[2]; 120 hours (5 days),0.42
same,rel amt (relative value set to the control),[3]; 48 hours,40
same,"MTT assay result, av-blank",[3]; 48 hours,0.124
same,"MTT assay result, av",[3]; 48 hours,0.170
same,"MTT assay result, run 1",[3]; 48 hours,0.185
same,"MTT assay result, run 2",[3]; 48 hours,0.181
same,"MTT assay result, run 3",[3]; 48 hours,0.156
same,"MTT assay result, run 4",[3]; 48 hours,0.183
same,"MTT assay result, run 5",[3]; 48 hours,0.21
same,"MTT assay result, run 6",[3]; 48 hours,0.141
same,"MTT assay result, run 7",[3]; 48 hours,0.137
same,rel amt (relative value set to the control),[3]; 120 hours (5 days),2
same,"MTT assay result, av-blank",[3]; 120 hours (5 days),0.042
same,"MTT assay result, av",[3]; 120 hours (5 days),0.094
same,"MTT assay result, run 1",[3]; 120 hours (5 days),0.088
same,"MTT assay result, run 2",[3]; 120 hours (5 days),0.084
same,"MTT assay result, run 3",[3]; 120 hours (5 days),0.098
same,"MTT assay result, run 4",[3]; 120 hours (5 days),0.089
same,"MTT assay result, run 5",[3]; 120 hours (5 days),0.12
same,"MTT assay result, run 6",[3]; 120 hours (5 days),0.084
same,"MTT assay result, run 7",[3]; 120 hours (5 days),0.092
